Source: US20180237449A1, “FUMAGILLOL SPIROCYCLIC COMPOUNDS AND FUSED BICYCLIC COMPOUNDS AND METHODS OF MAKING AND USING SAME” (Zafgen, Inc., priority 2015, published 2018)
Counter-ions that a name gives are not always drawn.

Legend:
[1] = test system: human fibrosarcoma cell line HT-1080; experiment: HT-1080 cell assay (CellTiter-Glo, 72 hours); type: cell-based; details: 72 hours incubation
Description: The human fibrosarcoma cell line HT-1080 were grown to almost complete confluence in T75 tissue culture flasks in preparation for the experiment. The cells were trypsinised and re-suspended in complete medium using DMEM plus 9% FBS including penicillin/streptomycin supplements. 500 cells in a total volume of 25 μl were seeded into black walled 384 well plates and returned to a CO2 incubator over-night. Compounds and standards were prepared at 333.3× actual test concentration in neat DMSO. 10 point dose response curves of test compounds were generated by 1:3 serial dilutions, 2 μl of DMSO stock was transferred to 109 μl complete medium. This was further diluted 1:6 in complete medium, with 5 μl of the resulting solution added to the incubated 384 well plate. […] For experimental blanks at the start of the experiment, CellTiter-Glo was added to a satellite plate of cells (identical to the experimental plate), when adding compounds on Day 1. The average of these wells is used as the blanks in the calculation template. Following 72 hours incubation with compounds and standard the plate was removed from the incubator and allowed to equilibrate at room temperature for at least 30 minutes. CellTiter-Glo was thawed and subsequently 30 μl added to columns 2-23. The plate was covered with a clear Perkin Elmer Topseal and placed on a plate shaker for 10-20 mins to aid homogenous mixing. Luminescence per well was determined using an EnVision 2104 Multilabel Reader (PerkinElmer) or other suitable reader. The compound blank value recorded on Day 1 is subtracted from all other data. Data is expressed as % inhibition of mean DMSO control response and the EC50 is calculated as 50% maximum response. The EC50 values are determined from a sigmoidal 4 parameter curve fit using XLfit in conjunction with Activity Base (IDBS; Guildford, Surrey, UK). The bottom of the curve is fixed to 0% inhibition.

[2] = test system: pregnant Sprague Dawley rats; experiment: Rat embryofetal development study; type: in vivo; details: 6 mpk sc once every three days, Gestation Days 6-18
Description: The objective of this study design was to evaluate the potential effects of disclosed compounds on embryo/fetal development when given subcutaneously to pregnant rats once every three days during the critical period of organogenesis (Gestation Days 6-18). Female, Sprague Dawley rats, approximately 10 weeks of age, time bred, were ordered from a certified vendor and housed individually housed in stainless steel cages suspended over flush pans, on a 12-hour light-dark cycle (0700-1900) at 20-26° C. and 30-70% humidity. Rats were fed a standard rodent chow and provided water ad libitum. Rats were received and housed in the facility for a period of approximately 1 to 2 days.
Compounds were formulated using 100% DMSO mixed in Sterile Water for Injection, resulting in 2% DMSO solution in water. If necessary, due to limited solubility of a test article, a higher percentage of DMSO solution in water was used. Groups of 8 mated and presumed pregnant female rats were given subcutaneous doses of vehicle or test article, once every three days, beginning on Gestation Day 6 and ending on Gestation Day 18 (Days 6, 9, 12, 15, and 18), maintained two more days, and then euthanized and necropsied on Gestation Day 20. Body weights was recorded for all animals on Gestation Days 5 (purpose of randomization), 6, 9, 12, 15, 18, and 20 (scheduled euthanasia). Food consumption by weight was recorded on Gestation Days 6, 9, 12, 15, 18, and 20 (scheduled termination).
At necropsy, the dams were examined visually for external abnormalities including palpable masses. The abdominal, thoracic, and cranial cavities and their contents were examined for abnormalities and findings will be recorded. The reproductive tract were examined to record the number of ovarian corpora lutea, the number and location of uterine implantation sites noting the position of the cervix, and the number of early resorptions, late resorptions, live fetuses, and dead fetuses. For dead fetuses and late resorptions, crown-to-rump length and weight were recorded, if possible, and the fetus was discarded. For viable fetuses, weight, sex, and grossly visible external abnormalities were recorded.

[3] = test system: Diet Induced Obese (DIO) C57BL/6 mice; experiment: 10 day DIO mouse model, weight loss vs. vehicle; type: in vivo; details: 0.3 mpk sc once a day for 10 days
Text: The objective of this study design was to investigate the efficacy of disclosed compounds in a 10 day DIO mouse model. Effects on body weight, food intake, hematology and blood chemistry were the primary readouts of this study design. Male, Diet Induced Obese (DIO) C57BL/6 mice, 19-21 weeks of age (13-15 weeks on high fat diet) were ordered from a certified vendor and upon receipt were housed on irradiated corncob bedding in micro-isolator cages on a 12-hour light-dark cycle (0700-1900) at 68-74° F. and 30-70% humidity. Mice were fed Research Diets D12492 (60% Kcal fat, 20% Kcal carbohydrate and 20% protein) and provided water ad libitum. DIO mice were received and housed in the facility for approximately two weeks prior to the start of test article administration. On Day −4 or −3, mice were randomized into study groups based on body weight and body weights were continued to be recorded daily for the duration of the study. Daily food intake was assessed starting on Study Day −2 by weighing of the food with hopper together to avoid loss of food in transfer.
Compounds were formulated into a 100% DMSO stock (at 9 mg/mL) prior to the start, and further diluted into the target working concentration using the vehicle of 10% DMSO in water. Prior to test article administration, starting on Day −3 a dosing acclimation occurred with all animals receiving a subcutaneous injection of vehicle (10% DMSO) only for 3 days. Starting on Day 1, test compounds or vehicle were administered based on individual body weight, subcutaneously, once a day for 10 days. All mice were sacrificed on Day 11, 24 hours following the final dosing on Day 10. After sacrifice, whole blood was collected and analyzed for hematology and blood chemistry parameters.
Compounds were tested for weight loss vs. vehicle at 0.3 and 1.0 mpk sc (mg per kg animal weight delivered subcutaneously), and the results are shown in Table 2 below.

DIO Sprague Dawley rats = experiment: 11 day rat DIO model, weight loss vs. vehicle; type: in vivo; details: 0.3 mpk sc once a day for 11 days
Text: The objective of this study design is to investigate the efficacy of disclosed compounds in an 11 day rat DIO model used to screen compounds for pharmacologic efficacy on endpoints related to obesity and metabolism. Effects on body weight, food intake, hematology and blood chemistries were the primary readouts of this study design. Male Sprague Dawley rats, approximately 8 weeks of age, were ordered from a certified vendor and housed on irradiated corncob bedding in micro-isolator cages, on a 12-hour light-dark cycle (0700-1900) at 68-74° F. and 30-70% humidity. Rats were fed Research Diets D12451 (45% High Fat) and provided water ad libitum. Rats were received and housed in the facility for at least two or three weeks prior to start of test article administration. On Day −4 or −3, rats were randomized into study groups based on body weight and body weights were continued to be recorded daily for the duration of the study. Daily food intake was assessed starting on Study Day −2 by weighing the hopper including the food to avoid loss of food in transfer.
Compounds were formulated into a 100% DMSO stock (at 9 mg/mL) prior to the start, and further diluted into the target working concentration using the vehicle of 10% DMSO in water. […] After sacrifice, whole blood was collected and analyzed for hematology and blood chemistry parameters. […]

Compound | EC50 [1] [nM] | Rat Embryofetal @6 mpk [2] | weight loss vs. vehicle, Mouse @ 0.3 mpk sc (%) [3] [%] | weight loss vs. vehicle, Rat @ 0.3 mpk sc (%) (DIO Sprague Dawley rats)
CO[C@@H]1[C@H](OC(=O)N2CC3(COC3)C2)CC[C@]2(CO2)[C@H]1[C@@]1(C)O[C@@H]1CC=C(C)C [Example 2, (3R,4S,5S,6R)-5-methoxy-4-((2R,3R)-2-methyl-3-(3-methylbut-2-enyl)oxiran-2-yl)-1-oxaspiro[2.5]octan-6-yl 2-oxa-6-azaspiro[3.3]heptane-6-carboxylate] | < 0.5 | Positive |  | 
CO[C@@H]1[C@H](OC(=O)N2CCC3(CC2)COC3)CC[C@]2(CO2)[C@H]1[C@@]1(C)O[C@@H]1CC=C(C)C [Example 5, (3R,4S,5S,6R)-5-methoxy-4-((2R,3R)-2-methyl-3-(3-methylbut-2-enyl)oxiran-2-yl)-1-oxaspiro[2.5]octan-6-yl 2-oxa-7-azaspiro[3.5]nonane-7-carboxylate] |  |  | 16.7 | 6.6
CO[C@@H]1[C@H](OC(=O)N2CC3(CCN(CC(F)F)CC3)C2)CC[C@]2(CO2)[C@H]1[C@@]1(C)O[C@@H]1CC=C(C)C [Example 9, (3R,4S,5S,6R)-5-methoxy-4-((2R,3R)-2-methyl-3-(3-methylbut-2-enyl)oxiran-2-yl)-1-oxaspiro[2.5]octan-6-yl 7-(2,2-difluoroethyl)-2,7-diazaspiro[3.5]nonane-2-carboxylate formate] | < 0.5 | Positive |  | 
CO[C@@H]1[C@H](OC(=O)NC2CC3(CCN(C)C3)C2)CC[C@]2(CO2)[C@H]1[C@@]1(C)O[C@@H]1CC=C(C)C (stereo partly drawn) [Example 11, (3R,4S,5S,6R)-5-methoxy-4-((2R,3R)-2-methyl-3-(3-methylbut-2-enyl)oxiran-2-yl)-1-oxaspiro[2.5]octan-6-yl 6-methyl-6-azaspiro[3.4]octan-2-ylcarbamate formate] |  |  | 6 | 
CO[C@@H]1[C@H](OC(=O)N2CC3C(C2)C3(F)F)CC[C@]2(CO2)[C@H]1[C@@]1(C)O[C@@H]1CC=C(C)C (stereo partly drawn) [Example 22, (3R,4S,5S,6R)-5-methoxy-4-((2R,3R)-2-methyl-3-(3-methylbut-2-enyl)oxiran-2-yl)-1-oxaspiro[2.5]octan-6-yl 6,6-difluoro-3-azabicyclo[3.1.0]hexane-3-carboxylate] | < 0.5 | Negative |  | 
CO[C@@H]1[C@H](OC(=O)N2CC3(C2)CS(=O)(=O)C3)CC[C@]2(CO2)[C@H]1[C@@]1(C)O[C@@H]1CC=C(C)C [Example 23, (3R,4S,5S,6R)-5-methoxy-4-((2R,3R)-2-methyl-3-(3-methylbut-2-enyl)oxiran-2-yl)-1-oxaspiro[2.5]octan-6-yl 2-thia-6-azaspiro[3.3]heptane 2,2-dioxide-6-carboxylate] |  |  | 2 | 
CO[C@@H]1[C@H](OC(=O)N2CC3(CNC(=O)C3)C2)CC[C@]2(CO2)[C@H]1[C@@]1(C)O[C@@H]1CC=C(C)C [Example 25, (3R,4S,5S,6R)-5-methoxy-4-((2R,3R)-2-methyl-3-(3-methylbut-2-enyl)oxiran-2-yl)-1-oxaspiro[2.5]octan-6-yl 7-oxo-2,6-diazaspiro[3.4]octane-2-carboxylate] |  |  | 2 | 
CO[C@@H]1[C@H](OC(=O)N2CCC3(CCOCC3)C2)CC[C@]2(CO2)[C@H]1[C@@]1(C)O[C@@H]1CC=C(C)C [Example 27, (3R,4S,5S,6R)-5-methoxy-4-((2R,3R)-2-methyl-3-(3-methylbut-2-enyl)oxiran-2-yl)-1-oxaspiro[2.5]octan-6-yl 8-oxa-2-azaspiro[4.5]decane-2-carboxylate] | < 0.5 | Positive |  | 
CO[C@@H]1[C@H](OC(=O)N2CCC3(CCN(C)CC3)CC2)CC[C@]2(CO2)[C@H]1[C@@]1(C)O[C@@H]1CC=C(C)C [Example 28, (3R,4S,5S,6R)-5-methoxy-4-((2R,3R)-2-methyl-3-(3-methylbut-2-enyl)oxiran-2-yl)-1-oxaspiro[2.5]octan-6-yl 9-methyl-3,9-diazaspiro[5.5]undecane-3-carboxylate] |  |  | 8 | 
CO[C@@H]1[C@H](OC(=O)N2C[C@@H]3[C@H](C2)[C@H]3C(=O)NCCN2CCOCC2)CC[C@]2(CO2)[C@H]1[C@@]1(C)O[C@@H]1CC=C(C)C [Example 37, (1R,5S,6R)-(3R,4S,5S,6R)-5-methoxy-4-((2R,3R)-2-methyl-3-(3-methylbut-2-en-1-yl)oxiran-2-yl)-1-oxaspiro[2.5]octan-6-yl 6-((2-morpholinoethyl)carbamoyl)-3-azabicyclo[3.1.0]hexane-3-carboxylate] |  |  | 4.3 | 
CO[C@@H]1[C@H](OC(=O)/C=C/c2ccc(OCCN(C)C)cc2)CC[C@]2(CO2)[C@H]1[C@@]1(C)O[C@@H]1CC=C(C)C [compound A, [(3R,6R,7S,8S)-7-methoxy-8-[(2R,3R)-2-methyl-3-(3-methylbut-2-enyl)oxiran-2-yl]-2-oxaspiro[2.5]octan-6-yl] (E)-3-[4-[2-(dimethylamino)ethoxy]phenyl]prop-2-enoate, reference compound] |  | Positive |  | 
